Consider one compound from patent US5254584A, “N-acetonylbenzamides and their use as fungicides” (Rohm and Haas Company, priority 1992, dated 1993).

The subject of one data set is bean plants. Nature of the data set: In vivo phytotoxic activity, foliar spray, bean. Conditions: foliar spray 2200 g/Ha, seven days after application. Set-up: key: +: indicating presence of a plant growth regulatory effect as compared to a control to which a solvent mixture (acetone/water/methanol) lacking the test compound was applied; 0: A zero indicates no apparent effect. The method, then: (§1) The compounds of Examples 1 and 12 were tested in vivo for phytotoxic activity by applying the compounds to the foliage of cucumber, tomato, bean, lettuce and strawberry plants as a spray at a rate of 2200 g/Ha. The plants were evaluated seven days after spray application of the compounds.
(§2) Phototoxicity scores are set forth below in Table 6. The phytotoxicity scores use a symbol, "+", indicating presence of a plant growth regulatory effect as compared to a control to which a solvent mixture (acetone/water/methanol) lacking the test compound was applied. A zero indicates no apparent effect. Each score is a composite representing the mode value for three replicate plants.

Data set [1] relates to Pseudoperonospora cubensis. The data set is described as follows: Cucumber Downy Mildew (CDM). The settings on record: in vivo.
Another data set concerns tomato plants. The data set is described as follows: In vivo phytotoxic activity, foliar spray, tomato. Conditions: foliar spray 2200 g/Ha, seven days after application. Set-up: key: +: indicating presence of a plant growth regulatory effect as compared to a control to which a solvent mixture (acetone/water/methanol) lacking the test compound was applied; 0: A zero indicates no apparent effect. Here is the method: as §1, §2

Another data set has as its system Plasmopara viticola. The data set is described as follows: Downy Mildew of Grapes (GDM). The data set is classed as in vivo. The settings on record: 300 g/Ha; 7-8 days; grape.
The subject of another data set is Cercospora beticola. Nature of the data set: microbe, parasite or virus in culture. The class given is cell-based. The settings on record: 72 h, 3 days at room temperature, read-out: CER percent inhibition of fungal growth.
A further data set deals with Piricularia oryzae. Nature of the data set: organism not typed. The class given is cell-based. The settings on record: 72 h, read-out: PIR percent inhibition of fungal growth.
A further data set concerns Monilinia fructicol. The data set is described as follows: microbe, parasite or virus in culture. The class given is cell-based. The settings on record: 72 h, 3 days at room temperature, read-out: MON percent inhibition of fungal growth.
In the next data set the test system is Pythium ultimum. Nature of the data set: microbe, parasite or virus in culture. Conditions: Globisporangium ultimum, 72 h, 3 days at room temperature, read-out: PYU percent inhibition of fungal growth. The class given is cell-based.
The test system of another data set is Phytophthora infestans. The data set is classed as in vivo. The settings on record: 300 g/Ha; applied two days after inoculation (curative); tomato.
Another data set has as its system Venturia inaequalis. Nature of the data set: Fungitoxicity assay against Venturia inaequalis (in vitro, microtiter MIC). The class given is cell-based. Conditions: 168 h, minimum inhibitory concentration, 7 days at 25° C. Here is the method: The compounds of Examples 1-20 were tested in vitro for fungicidal activity and phytotoxicity. A. The compounds were tested in vitro for fungicidal activity against Pythium ultimum, Botrytis cinerea and Venturia inaequalis. Fungitoxicity assay against Venturia inaequalis: Test compounds were dissolved in dimethylsulfoxide at 1 milligram per milliliter (mg/ml), and 50 ul added to 950 ul of yeast extract-dextrose medium (YED, 0.4% yeast extract, 2% dextrose) to give 50 part per million (ppm) solutions. Minimum inhibitory concentration (MIC) values were determined using a microtiter assay with twofold serial dilutions of the prepared 50 ppm solutions (100 ul) in YED medium. Inoculum consisted of a spore suspension of V. inaequalis in YED medium at 2.5×10^5 spores per ml. […] Results of the testing for fungicidal activity against the above named fungi are set forth below in Table 3 as Pythium EC50 (ppm), Botrytis EC50 (ppm) and Venturia MIC (ppm), respectively.

A further data set relates to Phytophthora capsici. Nature of the data set: microbe, parasite or virus in culture. The data set is classed as cell-based. Conditions: 72 h, 3 days at room temperature, read-out: PHY percent inhibition of fungal growth.
The next data set has as its system strawberry plants. The data set is described as follows: In vivo phytotoxic activity, foliar spray, strawberry. Set-up: key: +: indicating presence of a plant growth regulatory effect as compared to a control to which a solvent mixture (acetone/water/methanol) lacking the test compound was applied; 0: A zero indicates no apparent effect. The settings on record: foliar spray 2200 g/Ha, seven days after application. The method, then:
as §1, §2

The next data set concerns Botrytis cinerea. The data set is described as follows: Botrytis Gray Mold on Tomato (BOT). The class given is in vivo. The settings on record: 300 g/Ha, 5-7 days.

≈ marks a conversion by molar mass, not a printed value.

In the case of `CCC(C)(NC(=O)c1cc(C)cc(C=NOC)c1)C(=O)CCl` (stereo not shown) [Example 12, N-[3'-(1'-chloro-3'-methyl-2'-oxopentan)]-3-methoxyiminomethyl-5-methylbenzamide], in the data set on bean plants, the “phytotoxicity score, Bean” value was determined as 0. For the same compound, the “CDM percent disease control” value in data set [1] was determined as 99%. The “phytotoxicity score, Tomato” value with tomato plants worked out at 0. In addition, the “GDM percent disease control” value in the data set on Plasmopara viticola came out at 100%. For the same compound, the inhibition at 25 ppm in the data set with Cercospora beticola, in the data set on Piricularia oryzae, with Monilinia fructicol, in the data set on Pythium ultimum and in the data set on Phytophthora capsici was 100% throughout. The “TLC percent disease control” value with Phytophthora infestans is given as 99%. The same compound showed an MIC against Venturia inaequalis of 0.1 µg/mL (≈ 0.308 µM). In addition, the “phytotoxicity score, Strawberry” value in the data set with strawberry plants was 0. Further, the “BOT percent disease control” value with Botrytis cinerea was found to be 100%.
